Reference: US12673955B2, “Crystal form of p-toluenesulfonate salt of diazabicyclic compound and preparation method therefor” (CRYSTAL PHARMATECH CO., LTD., priority 2020, dated 2026)

What was measured:
Assay type in all cases: physicochemical
[1] = Intrinsic dissolution of crystalline form; conditions: pH 6.8 phosphate buffer, 900 mL, 37° C., paddle, tablet surface 0.5 cm^2
Experimental: The intrinsic dissolution rate data of the present disclosure were collected on an Agilent 708DS-type dissolution apparatus of the Agilent company. The intrinsic dissolution test conditions were as follows.
Approximately 100 mg of tosylate Form A and the solid in the prior art were added into the cavity of the die, and then compressed at 5 KN and held for 1 minute to obtain a tablet having a surface area of 0.5 cm^2.

[2] = Hygroscopicity study by dynamic vapor sorption (DVS)
Experimental: The dynamic vapor sorption diagrams of the present disclosure were collected on Intrinsic-type and Intrinsic Plus-type dynamic vapor sorption instruments of SMS company. The parameters of the dynamic vapor sorption test of the present disclosure were as follows: • Temperature: 25° C. • Protection gas and flow rate: N2, 200 m L/min • dm/dt: 0.002%/min • Minimum dm/dt equilibration time: 10 min • Maximum Equilibration Time: 180 min • Relative humidity range: 0% RH-95% RH-0% RH • Relative humidity gradient: 10% (0% RH-90% RH-0% RH), 5% (90% RH-95% RH and 95% RH-90% RH).
Dynamic vapor sorption (DVS) was applied to test hygroscopicity of tosylate Form A solid and solid in the prior art with about 10 mg of samples. XRPD patterns were collected.
Non-hygroscopic or almost non hygroscopic: increase in mass is less than 0.2 percent.

[3] = Stability study of tosylate Form A (XRPD and chemical impurity after storage)
Experimental: Approximately 10 mg of tosylate Form A were stored under different conditions of 25° C./60% RH and 40° C./75% RH. XRPD and chemical impurity were checked at 1 week, 2 weeks, 4 weeks and 8 weeks.
Based on the above results, tosylate Form A kept stable for at least 8 weeks.

[4] = Crystal habit by polarized light microscopy
Text: The polarized light microscope photos of the present disclosure were taken at room temperature with a Zeiss microscope Axio Scope.A1 equipped with an Axiocam 305 color camera and 5×, 10×, 20× and 50× objective lenses.

[5] = Adhesiveness propensity study (material sticking to the punch); conditions: 8 mm round tooling, 10 kN, 30 s
Experimental: Approximately 30 mg of tosylate Form A and the solid in the prior art were weighed and then added into the dies of 8 mm round tooling, compressed at 10 kN pressure and held for 30 s. The punch was weighed and amount of material sticking to the punch was calculated. The compression was repeated once and the cumulative amount, maximum amount and average amount of material sticking to the punch during the compression were recorded.

[6] = Solubility of crystalline form (saturated solutions measured by HPLC); conditions: for solubility at 1 h / solubility at 2 h / solubility at 4 h / solubility at 24 h: thermodynamic from solid
Experimental: Tosylate Form A and solid in the prior art were suspended into SGF, FaSSIF, FeSSIF and water to get saturated solutions. After equilibrated for 1 hour, 2 hours, 4 hours and 24 hours, concentrations of the saturated solutions were measured by HPLC.

[7] = Compressibility of crystalline form (manual tablet press, 350 MPa)
Experimental: A manual tablet press was used for tabletting. Appropriate amount of tosylate Form A and solid in the prior art were compressed by circle punches under 350 MPa pressure to form a tablet. Hardness (H) of the tablet was determined to be 18.36 N by a tablet hardness tester. Diameter (D) and thickness (L) of the tablet were determined to be 6 mm and 1.02 mm by a vernier caliper, respectively. The tensile strength of the tablets was calculated to be 1.9 MPa through the equation of T=2H/πDL.

[8] = PSD test (laser particle size analyzer, wet method)
Experimental: The particle size distribution results of the present disclosure were collected on S3500-type laser particle size analyzer of the Microtrac company. The Microtrac S3500 was equipped with an SDC (Sample Delivery Controller) sampling system. The wet method was used in this test, using Isopar G (containing 0.2% lecithin) as the test dispersion medium. The process parameters of the laser particle size analyzer were as follows.
Approximately 10-30 mg of tosylate Form A solid was added into 10 mL of Isopar G (containing 0.2% lecithin). The mixture was mixed thoroughly and transferred into the SDC. The experiment was started when the obscuration is in appropriate range. The particle size distribution (PSD) was tested before and after 30 seconds of ultrasound.

[9] = 25° C./60% RH and 40° C./75% RH, up to 8 weeks
[10] = Isopar G containing 0.2% lecithin

- form change after DVS test (XRPD) ([2]; 0% RH-95% RH-0% RH, 25° C.): no obvious form change
- hygroscopicity class ([2]; Chinese Pharmacopoeia 2015 definition, from DVS weight gain at 80% RH): slightly hygroscopic
- weight gain (DVS) ([2]; at 80% RH, 25° C.): 0.35%
- hygroscopicity compared with the prior art ([2]; versus solid in the prior art): relatively lower hygroscopicity
- time kept stable ([3]; 25° C./60% RH and 40° C./75% RH): at least 8 weeks
- Crystalline state after storage [3, 9]: doesn't change
- chemical purity after storage [3, 9]: above 99%
- Puriy ([3]; 25° C./60% RH, 1 week): 99.92%
- Puriy ([3]; 25° C./60% RH, 2 weeks): 100.0%
- Puriy ([3]; 25° C./60% RH, 4 weeks): 99.89%
- Puriy ([3]; 25° C./60% RH, 8 weeks): 99.92%
- Puriy ([3]; 40° C./75% RH, 1 week): 99.90%
- Puriy ([3]; 40° C./75% RH, 2 weeks): 99.91%
- Puriy ([3]; 40° C./75% RH, 4 weeks): 99.90%
- Puriy ([3]; 40° C./75% RH, 8 weeks): 99.91%
- flowability ([4]; inferred from crystal habit): good flowability
- crystal habit ([4]; polarized light microscopy): rod-like particles
- adhesiveness compared with the prior art solid [5]: superior to the prior art solid
- solubility at 1 h ([6]; simulated gastric fluid, SGF): 5540 µg/mL
- solubility at 2 h ([6]; simulated gastric fluid, SGF): 5990 µg/mL
- solubility at 4 h ([6]; simulated gastric fluid, SGF): 5080 µg/mL
- solubility at 24 h ([6]; simulated gastric fluid, SGF): 5690 µg/mL
- solubility at 1 h ([6]; FaSSIF): 7120 µg/mL
- solubility at 2 h ([6]; FaSSIF): 7310 µg/mL
- solubility at 4 h ([6]; FaSSIF): 7300 µg/mL
- solubility at 24 h ([6]; FaSSIF): 7540 µg/mL
- solubility at 1 h ([6]; FeSSIF): 6770 µg/mL
- solubility at 2 h ([6]; FeSSIF): 7030 µg/mL
- solubility at 4 h ([6]; FeSSIF): 7340 µg/mL
- solubility at 24 h ([6]; FeSSIF): 7780 µg/mL
- solubility at 1 h ([6]; water, H2O): 5260 µg/mL
- solubility at 2 h ([6]; water, H2O): 5340 µg/mL
- solubility at 4 h ([6]; water, H2O): 5240 µg/mL
- solubility at 24 h ([6]; water, H2O): 5560 µg/mL
- compressibility ([7]; 350 MPa pressure): good compressibility
- tensile strength of the tablets ([7]; calculated by T=2H/πDL, tablet compressed under 350 MPa): 1.9 MPa
- Hardness (H) of the tablet ([7]; tablet compressed under 350 MPa, diameter 6 mm, thickness 1.02 mm): 18.36 N
- change of particle size distribution after sonication ([8]; 30 seconds of ultrasound): no obvious change or agglomeration
- mean particle size (MV) [8, 10]: 400 μm
- particle size distribution shape [8, 10]: unimodal distribution
SMILES: Cn1cc(Nc2nccc(N3C[C@H]4CC[C@@H](C3)N4C(=O)[C@@H]3CC3(F)F)n2)cn1 [tosylate Form A, ((1S)-2,2-difluorocyclo-propyl) ((1R,5S)-3-(2-((1-methyl-1H-pyrazol-4-yl)amino)pyrimidin-4-yl)-3,8-diazabicyclo[3.2.1]octan-8-yl)methanone]
- intrinsic dissolution rate compared with the solid in the prior art [1]: higher dissolution rate than the solid in the prior art
- solubility compared with solid in the prior art ([6]; SGF, FaSSIF, FeSSIF and water): higher than that of solid in the prior art
